Here are results for 47 compounds from US8173841B2, “Tetrahydro-naphthalene derivatives” (Xention Limited, priority 2003, dated 2012).

For one series, the target named is T1, human VR1 (Homo sapiens, UniProt Q8NER1).
T1 construct: expressed in transfected cells
In words: Capsaicin-induced Ca2+ influx in the human VR1-transfected CHO cell line (Assay 1). In kind it is cell-based. The settings on record: human VR1-CHOluc9aeq cells, stimulation with 10 nM capsaicin, Fluo-3 AM / FDSS-3000; compounds of purity about 40 to 90%; read-out: Activity Class (IC50 of capsaicin-induced Ca2+ influx). An excerpt:
[Measurement of Capsaicin-Induced Ca^2+ Influx in the Human VR1-Transfected CHO Cell Line] (Assay 1)
(1) Establishment of the Human VR1-CHOluc9aeq Cell Line
Human vanilloid receptor (hVR1) cDNA was cloned from libraries of axotomized dorsal root ganglia (WO 00/29577). The cloned hVR1 cDNA was constructed with pcDNA3 vector and transfected into a CHOluc9aeq cell line. The cell line contains aequorin and CRE-luciferase reporter genes as read-out signals. The transfectants were cloned by limiting dilution in selection medium (DMEM/F12 medium (Gibco BRL) supplemented with 10% FCS, 1.4 mM Sodium pyruvate, 20 mM HEPES, 0.15% Sodium bicarbonate, 100 U/ml penicillin, 100 μg/ml streptomycin, 2 mM glutamine, non-essential amino acids and 2 mg/ml G418). Ca^2+ influx was examined in the capsaicin-stimulated clones. A high responder clone was selected and used for further experiments in the project. The human VR1-CHOluc9aeq cells were maintained in the selection medium and passaged every 3-4 days at 1−2.5×10^5 cells/flask ([…]).
(2) Measurement of Ca^2+ influx using FDSS-3000
Human VR1-CHOluc9aeq cells were suspended in a culture medium which is the same as the selection medium except for G418 and seeded at a density of 1,000 cells per well into 384-well plates (black walled clear-base/Nalge Nunc International). Following the culture for 48 hrs the medium was changed to 2 μM Fluo-3 AM (Molecular Probes) and 0.02% Puronic F-127 in assay buffer (Hank's balanced salt solution (HBSS), 17 mM HEPES (pH7.4), 1 mM Probenecid, 0.1% BSA) and the cells were incubated for 60 min at 25° C. After washing twice with assay buffer the cells were incubated with a test compound or vehicle for 20 min at 25° C. Mobilization of cytoplasmic Ca^2+ was measured by FDSS-3000 (λex=488 nm, λem=540 nm/Hamamatsu Photonics) for 60 sec after the stimulation with 10 nM capsaicin. Integral R was calculated and compared with controls.
The data corresponds to the compounds as yielded by solid phase synthesis and thus to levels of purity of about 40 to 90%. For practical reasons, the compounds are grouped in four classes of activity as follows: IC50=A (< or =) 0.1 μM<B (< or =) 0.5 μM<C (< or =) 1 μM<D

A value given as a limit tells only on which side of the number the result lay.

T1 sequence (Q8NER1 whole entry): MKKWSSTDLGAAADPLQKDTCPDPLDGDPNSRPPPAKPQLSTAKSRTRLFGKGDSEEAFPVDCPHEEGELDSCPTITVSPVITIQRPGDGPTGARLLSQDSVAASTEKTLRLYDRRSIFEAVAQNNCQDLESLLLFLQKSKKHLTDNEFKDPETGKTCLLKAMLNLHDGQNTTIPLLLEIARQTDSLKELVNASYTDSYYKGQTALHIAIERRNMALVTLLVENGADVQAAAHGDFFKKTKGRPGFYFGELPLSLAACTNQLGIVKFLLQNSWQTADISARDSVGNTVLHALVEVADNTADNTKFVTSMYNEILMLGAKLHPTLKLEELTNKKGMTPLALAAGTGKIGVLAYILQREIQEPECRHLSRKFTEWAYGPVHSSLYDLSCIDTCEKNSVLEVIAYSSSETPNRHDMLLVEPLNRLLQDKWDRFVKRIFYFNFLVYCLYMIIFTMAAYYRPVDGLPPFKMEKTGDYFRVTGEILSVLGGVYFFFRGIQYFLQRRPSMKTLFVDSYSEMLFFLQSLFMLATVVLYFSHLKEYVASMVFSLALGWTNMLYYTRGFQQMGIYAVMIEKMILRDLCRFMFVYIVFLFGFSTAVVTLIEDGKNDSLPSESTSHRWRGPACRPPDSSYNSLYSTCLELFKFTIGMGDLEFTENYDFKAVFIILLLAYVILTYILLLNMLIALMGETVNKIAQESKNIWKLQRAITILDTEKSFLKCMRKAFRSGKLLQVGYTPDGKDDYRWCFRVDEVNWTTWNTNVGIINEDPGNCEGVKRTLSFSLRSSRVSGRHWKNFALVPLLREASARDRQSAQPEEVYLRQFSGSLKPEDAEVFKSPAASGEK

`Cc1ccc(-c2cccc(NC(=O)Nc3cccc4c3CC(O)CC4)c2)cc1` (stereo not drawn) [Example 1-1, N-(7-Hydroxy-5,6,7,8-tetrahydronaphthalen-1-yl)-N′-(4′-methylbiphenyl-3-yl)urea]: the melting point (as a rule, the temperature, or range, at which the solid turns liquid) lay within 217 to 219 °C. At human VR1, the IC50 (usually the point on the concentration scale where inhibition reaches its midpoint) was below 100 nM.

On to `CCOC(=O)c1ccc(-c2cccc(NC(=O)Nc3cccc4c3CC(O)CC4)c2)cc1` (stereo not drawn) [Example 1-2], for which the melting point fell in the range of 198 to 200 °C. The IC50 at human VR1 was below 100 nM.

As for `O=C(Nc1cccc(-c2ccc(Cl)c(F)c2)c1)Nc1cccc2c1CC(O)CC2` (stereo not drawn) [Example 1-3], the melting point was in the range of 94 to 96 °C. Also, the IC50 at human VR1 is below 100 nM.

Turning to `O=C(Nc1cccc(-c2ccc(C(=O)O)cc2)c1)Nc1cccc2c1CC(O)CC2` (stereo not drawn) [Example 1-4], the melting point lay within 281 to 284 °C. Besides, the IC50 at human VR1 is below 100 nM.

`O=C(Nc1cccc(-c2ccc(F)cc2F)c1)Nc1cccc2c1CC(O)CC2` (stereo not drawn) [Example 1-5] displayed a melting point of 187 to 189 °C. The IC50 on human VR1 was below 100 nM.

In turn, `CCOC(=O)c1cccc(-c2cccc(NC(=O)Nc3cccc4c3CC(O)CC4)c2)c1` (stereo not drawn) [Example 1-6] came in with a melting point of 142 to 144 °C. Further, at human VR1, the IC50 was below 100 nM.

Consider `O=C(Nc1cccc(-c2ccc(C(F)(F)F)cc2)c1)Nc1cccc2c1CC(O)CC2` (stereo not drawn) [Example 1-7], for which the IC50 at human VR1 is below 100 nM.

On to `O=C(Nc1cccc(-c2ccccc2Cl)c1)Nc1cccc2c1CC(O)CC2` (stereo not drawn) [Example 1-8], for which the 50% inhibitory concentration (IC50) at human VR1 was below 100 nM.

On to `O=C(Nc1cccc(-c2ccccc2C(F)(F)F)c1)Nc1cccc2c1CC(O)CC2` (stereo not drawn) [Example 1-9], for which the IC50 on human VR1 was below 100 nM.

`CSc1ccc(-c2cccc(NC(=O)Nc3cccc4c3CC(O)CC4)c2)cc1` (stereo not drawn) [Example 1-10]: at human VR1, the half-inhibitory concentration (IC50) is below 100 nM.

Consider `O=C(Nc1cccc(-c2cc(F)cc(F)c2)c1)Nc1cccc2c1CC(O)CC2` (stereo not drawn) [Example 1-11], for which the IC50 at human VR1 is below 100 nM.

`Cc1cc(C)cc(-c2cccc(NC(=O)Nc3cccc4c3CC(O)CC4)c2)c1` (stereo not drawn) [Example 1-12] yielded a melting point of 221 °C. Moreover, on human VR1, the IC50 was below 100 nM.

In the case of `COc1cccc(-c2cccc(NC(=O)Nc3cccc4c3CC(O)CC4)c2)c1` (stereo not drawn) [Example 1-13], the melting point worked out at 204 °C. Besides, the concentration for half-maximal inhibition (IC50) on human VR1 was below 100 nM.

`COc1ccc(-c2cccc(NC(=O)Nc3cccc4c3CC(O)CC4)c2)cc1` (stereo not drawn) [Example 1-14] had a melting point of 203 °C. Also, the IC50 on human VR1 was below 100 nM.

Regarding `COc1ccc(OC)c(-c2cccc(NC(=O)Nc3cccc4c3CC(O)CC4)c2)c1` (stereo not drawn) [Example 1-15], the melting point was found to be 190 °C. The IC50 at human VR1 is below 100 nM.

`O=C(Nc1cccc(-c2ccc(F)cc2)c1)Nc1cccc2c1CC(O)CC2` (stereo not drawn) [Example 1-16] came in with a melting point of 228 °C. Moreover, the IC50 on human VR1 was below 100 nM.

As to `O=C(Nc1cccc(-c2ccc(F)c(F)c2)c1)Nc1cccc2c1CC(O)CC2` (stereo not drawn) [Example 1-17], the melting point was 216 °C. Further, on human VR1, the IC50 was below 100 nM.

In the case of `O=C(Nc1cccc(-c2cccc(Cl)c2)c1)Nc1cccc2c1CC(O)CC2` (stereo not drawn) [Example 1-18], the melting point was 209 °C. The IC50 on human VR1 was below 100 nM.

The compound `O=C(Nc1cccc(-c2cc(Cl)cc(Cl)c2)c1)Nc1cccc2c1CC(O)CC2` (stereo not drawn) [Example 1-19] showed a melting point of 221 °C. For the same compound, the IC50 at human VR1 was below 100 nM.

Regarding `O=C(Nc1cccc(-c2cccc(Cl)c2Cl)c1)Nc1cccc2c1CC(O)CC2` (stereo not drawn) [Example 1-20], the melting point is 204 °C. The IC50 on human VR1 was below 100 nM.

In turn, `O=C(Nc1cccc(-c2ccc(Cl)cc2Cl)c1)Nc1cccc2c1CC(O)CC2` (stereo not drawn) [Example 1-21] showed a melting point of 208 °C. The IC50 on human VR1 is below 100 nM.

Compound `O=C(Nc1cccc(-c2cc(Cl)ccc2Cl)c1)Nc1cccc2c1CC(O)CC2` (stereo not drawn) [Example 1-22] showed a melting point of 209 °C. Besides, the concentration for half-maximal inhibition (IC50) at human VR1 is below 100 nM.

`O=C(Nc1cccc(-c2cccc(C(F)(F)F)c2)c1)Nc1cccc2c1CC(O)CC2` (stereo not drawn) [Example 1-23] returned a melting point of 210 °C. The IC50 at human VR1 is below 100 nM.

With `O=C(Nc1cccc(-c2cccc(OC(F)(F)F)c2)c1)Nc1cccc2c1CC(O)CC2` (stereo not drawn) [Example 1-24], the melting point stood at 195 °C. Besides, the IC50 on human VR1 is below 100 nM.

`O=C(Nc1cccc(-c2ccc(OC(F)(F)F)cc2)c1)Nc1cccc2c1CC(O)CC2` (stereo not drawn) [Example 1-25] had a melting point of 210 °C. Moreover, on human VR1, the IC50 was below 100 nM.

Consider `CN(C)c1ccc(-c2cccc(NC(=O)Nc3cccc4c3CC(O)CC4)c2)cc1` (stereo not drawn) [Example 1-26], for which the melting point is 215 °C. In addition, the IC50 at human VR1 was below 100 nM.

On to `CC(=O)c1ccc(-c2cccc(NC(=O)Nc3cccc4c3CC(O)CC4)c2)cc1` (stereo not drawn) [Example 1-27], for which the melting point amounted to 216 °C. Besides, at human VR1, the IC50 was below 100 nM.

`O=C(Nc1cccc(-c2cccc([N+](=O)[O-])c2)c1)Nc1cccc2c1CC(O)CC2` (stereo not drawn) [Example 1-28] returned a melting point of 238 °C. In addition, the IC50 on human VR1 was below 100 nM.

As for `O=C(Nc1cccc(-c2ccc(OCCN3CCOCC3)cc2)c1)Nc1cccc2c1CC(O)CC2` (stereo not drawn) [Example 1-29], the IC50 at human VR1 is below 100 nM.

For `CN(C)c1ccc(-c2ccc(CNC(=O)Nc3cccc4c3CC(O)CC4)cc2)cc1` (stereo not drawn) [Example 1-30], the melting point lay within 205 to 206 °C. In addition, the IC50 at human VR1 is below 100 nM.

For `COc1ccc(-c2ccc(CNC(=O)Nc3cccc4c3CC(O)CC4)cc2)cc1` (stereo not drawn) [Example 1-31], the melting point lay within 215 to 216 °C. Also, on human VR1, the IC50 was below 100 nM.

In turn, `Cc1ccc(-c2ccc(CNC(=O)Nc3cccc4c3CC(O)CC4)cc2)cc1` (stereo not drawn) [Example 1-32] came in with a melting point of 211 to 212 °C. In addition, the IC50 on human VR1 was below 100 nM.

As for `O=C(NCc1ccc(-c2cccc(Cl)c2)cc1)Nc1cccc2c1CC(O)CC2` (stereo not drawn) [Example 1-33], the melting point lay within 195 to 196 °C. Moreover, the IC50 on human VR1 is below 100 nM.

Turning to `O=C(NCc1ccc(-c2cc(Cl)ccc2Cl)cc1)Nc1cccc2c1CC(O)CC2` (stereo not drawn) [Example 1-34], the melting point was in the range of 139 to 140 °C. Also, the IC50 at human VR1 was below 100 nM.

As for `COc1ccccc1-c1ccc(CNC(=O)Nc2cccc3c2CC(O)CC3)cc1` (stereo not drawn) [Example 1-35], the melting point fell in the range of 128 to 129 °C. For the same compound, on human VR1, the IC50 is below 100 nM.

The compound `COc1ccc(OC)c(-c2ccc(CNC(=O)Nc3cccc4c3CC(O)CC4)cc2)c1` (stereo not drawn) [Example 1-36] returned a melting point of 113 to 114 °C. Moreover, at human VR1, the IC50 is below 100 nM.

In turn, `Cc1ccc(C)c(-c2ccc(CNC(=O)Nc3cccc4c3CC(O)CC4)cc2)c1` (stereo not drawn) [Example 1-37] returned a melting point of 181 to 182 °C. Also, the IC50 on human VR1 is below 100 nM.

For `O=C(NCc1ccc(-c2cccc(F)c2)cc1)Nc1cccc2c1CC(O)CC2` (stereo not drawn) [Example 1-38], the melting point lay within 191 to 192 °C. Also, on human VR1, the IC50 was below 100 nM.

With `O=C(NCc1ccc(-c2cccc(OC(F)(F)F)c2)cc1)Nc1cccc2c1CC(O)CC2` (stereo not drawn) [Example 1-39], the melting point is 218 to 219 °C. Moreover, on human VR1, the IC50 was below 100 nM.

In turn, `O=C(NCc1ccc(-c2ccc(Cl)cc2Cl)cc1)Nc1cccc2c1CC(O)CC2` (stereo not drawn) [Example 1-40] came in with a melting point of 177 to 178 °C. For the same compound, the IC50 on human VR1 was below 100 nM.

The compound `O=C(NCc1ccc(-c2ccc(F)c(F)c2)cc1)Nc1cccc2c1CC(O)CC2` (stereo not drawn) [Example 1-41] showed a melting point of 191 to 192 °C. The IC50 at human VR1 was below 100 nM.

`O=C(NCc1ccc(-c2ccc(F)c(Cl)c2)cc1)Nc1cccc2c1CC(O)CC2` (stereo not drawn) [Example 1-42] came in with a melting point of 205 to 206 °C. Moreover, the IC50 at human VR1 was below 100 nM.

In the case of `O=C(NCc1ccc(-c2ccc(OC(F)(F)F)cc2)cc1)Nc1cccc2c1CC(O)CC2` (stereo not drawn) [Example 1-43], the melting point fell in the range of 199 to 200 °C. Moreover, the IC50 on human VR1 was below 100 nM.

`O=C(NCc1ccc(-c2cccc(C(F)(F)F)c2)cc1)Nc1cccc2c1CC(O)CC2` (stereo not drawn) [Example 1-44]: the melting point was 196 to 197 °C. Also, the IC50 at human VR1 was below 100 nM.

Take `O=C(NCc1ccc(-c2ccc(F)cc2)cc1)Nc1cccc2c1CC(O)CC2` (stereo not drawn) [Example 1-45]: the melting point lay in the range of 201 to 202 °C. The IC50 at human VR1 was below 100 nM.

Take `CSc1ccc(-c2ccc(CNC(=O)Nc3cccc4c3CC(O)CC4)cc2)cc1` (stereo not drawn) [Example 1-46]: the melting point fell in the range of 216 to 217 °C. Besides, at human VR1, the IC50 is below 100 nM.

In the case of `O=C(Cc1cccc(-c2ccc(F)cc2)c1)Nc1cccc2c1CC(O)CC2` (stereo not drawn) [Example 3-2], the IC50 on human VR1 fell in the range of 500 to 1000 nM.
